Assay results taken from patent US20220378907A1, “METHODS FOR TREATING DISEASES” (CHILDREN'S HOSPITAL MEDICAL CENTER, priority 2019, published 2022).

What was measured:
Assay type in all cases: cell-based, mouse
[1] = tested on: IL-1β production by BMDCs co-cultured with TH0 cells; test: Co-culture of BMDCs and effector CD4+ T cells (CD3 Ab), secreted IL-1β by ELISA or immunoblot; conditions: WT BMDCs + WT TH0 cells, IETD 10 μM, 18 h
Method: Cell culture treated plates were coated with αCD3 (5 μg mL^−1) and αCD28 (5 μg mL^−1) for 3-4 h at 37° C. CD4^+CD62L^hi naïve CD4^+ T cells were isolated from splenocytes using a Mojosort naïve CD4 T cell isolation kit according to manufacturer's protocol. Purified naïve T cells were plated in antibody-coated plates with appropriate polarizing conditions for 5 days. T cell were cultured in complete RPMI supplemented with 10% FCS. Cytokine cocktails for in vitro polarization: Thl — IL-12 (10 ng mL^−1, peprotech), IL-2 (50 U mL^−1, peprotech), αIL-4 (10 μg mL^−1, Biolegend); Th17-IL-6 (20 ng mL^−1, peprotech), hTGFβ (5 ng mL^−1, peprotech), αIL-4 (10 μg mL^−1, Biolegend), αIFNγ (10 μg mL^−1, Biolegend), IL-23 (20 ng mL^−1, Biolegend) and IL-1β (20 ng mL^−1, peprotech), Th2− IL-4 (4 ng mL^−1, peprotech), IL-2 (50 U mL^−1, Biolegend), and αIFNγ (10 μg mL^−1, Biolegend), Th0− IL-2 (50 U mL^−1). For co-culture experiments T cells were rested in 10% RPMI supplemented with IL-2 (10 U mL^−1) for 36 hrs before co-culture.
Mouse progenitors were isolated from bone marrow (femurs and tibias). […]
Cells were lysed in 1× RIPA Buffer and protein was quantified using Pierce™ BCA Protein Assay Kit. […] Western blot was develop using SuperSignal™ West Pico PLUS Chemiluminescent Substrate (Thermo Fisher) and ECL signal was recorded on X-Ray Films using a developer (Kodak).

pro-IL-1β in BMDCs = test: Co-culture of BMDCs and effector CD4+ T cells, pro-IL-1β by immunoblot or flow cytometry; conditions: WT BMDCs + WT TH0 cells, CD3 Ab, IETD 10 μM, 18 h
Method: 1 million DCs were cultured with 4 million T cells in 12 well plate. DC-T cell interaction was triggered by adding either αCD3ε (αCD3, 200 ng mL^−1) or OVA323-339 as described in the legends. In experiments measuring secreted IL-1β, IL-1R antagonist (50 ng mL^−1) was added 1 hr prior to DC stimulation to block IL-1β consumption. Co-cultures were also pretreated with neutralizing antibodies and inhibitor wherever described. Co-culture experiments were performed in complete RPMI supplemented with 10% FCS. For Western blot analysis of the culture supernatant cells were cultured in 1% FCS containing complete RPMI.
Cells were lysed in 1× RIPA Buffer and protein was quantified using Pierce™ BCA Protein Assay Kit. Cell lysates where boiled in 1× Laemmli buffer at 95° C. for 10 mins. Cell lysates were separated by SDS-PAGE and transferred onto PVDF membranes. Blots were incubated with anti-IL1β [1:1000] (R&D AF-401-SP), anti-caspase8 [1:1000] […] Western blot was develop using SuperSignal™ West Pico PLUS Chemiluminescent Substrate (Thermo Fisher) and ECL signal was recorded on X-Ray Films using a developer (Kodak).
Cells were stained with relevant antibodies for 30 min on ice and washed. […] The stained cells were analyzed with BDLSRII or Novocyte (ACEA biosciences). For cytokine receptor staining, control refers to fluorescence minus one control. Data were analyzed with FlowJo 10 Software.

WT BMDCs = test: Stimulation of WT BMDCs with recombinant TNF, intracellular pro-IL-1β by flow cytometry; conditions: recombinant TNFα 20 ng/mL, 6 h
Method: Mouse progenitors were isolated from bone marrow (femurs and tibias). Following RBC lysis, cells were plated at 0.75×10^6 mL^−1 in BMDC media (5% FCS containing complete RPMI+1% rGMCSF (Biolegend, 100 ng mL^−1). Media was replaced on day 2 and day 4 and cells were harvested for experiments on day 5 by gently flushing each well. For sorting of BMDC subpopulations, total BMDC cells were stained with fluorescent antibodies and FACS sorted as shown (FIG. 5g) For retroviral transduction, following RBC lysis cells were plated at 10×10^6 mL^−1 in 2 mL of retroviral supernatant containing […] polybrene. Cells were spinfected at 2500 rpm, 32° C., for 90 minutes, then 3 mL of BMDC media was added to each well and cells were incubated overnight. The next morning, ˜70% of the media was removed from the wells and spinfection was repeated with fresh retroviral supernatant. On day 5 cells were harvested for experiments.
Cells were stained with relevant antibodies for 30 min on ice and washed. For intracellular staining, Foxp3 staining buffer set (eBioscience; 00-5523-00) was used according to manufacturer's protocol. The stained cells were analyzed with BDLSRII or Novocyte (ACEA biosciences). For cytokine receptor staining, control refers to fluorescence minus one control. Data were analyzed with FlowJo 10 Software.

Row | Molecule | mature IL-1β (p17) in the supernatant (immunoblot, FIG. 4d) [1] | production of pro-IL-1β in BMDCs (immunoblot, FIG. 4d) (pro-IL-1β in BMDCs) | synthesis of pro-IL-1β in wild-type BMDCs (FIG. 2k) (WT BMDCs)
1 | IETD | loss of mature IL-1β | did not affect | 
2 | recombinant TNF: rTNFα (Peprotech; 315-01Am, 20 ng/mL) (protein) LRSSSQNSSDKPVAHVVANHQVEEQLEWLSQRANALLANGMDLKDNQLVVPADGLYLVYSQVLFKGQGCPDYVLLTHTVSRFAISYQEKVNLLSAVKSPCPKDTPEGAELKPWYEPIYLGGVFQLEKGDQLSAEVNLPKYLDFAESGQVYFGVIAL |  |  | drove the synthesis
